# Data as given in US20250084079A1, “COMPOSITIONS AND METHODS FOR INHIBITION OF RAS” (TheRas, Inc., priority 2022, published 2025).
# Read-outs that look alike come from different tables or passages of the source.
# How the values were obtained:
# [1] = target: T1, Avi-KRAS G12D (1-169) GppNHp/RAF1 RBD-3xFLAG (52-151) (Homo sapiens, UniProt P01116, G12D); experiment: RAS-effector PPI HTRF disruption assay, Raf1-GppNHp-KRAS G12D; type: biochemical
# T1 construct: 100 nM Avi-KRAS G12D (1-169) GppNHp
# T1 sequence (P01116 1-169 isoform P01116-2 G12D): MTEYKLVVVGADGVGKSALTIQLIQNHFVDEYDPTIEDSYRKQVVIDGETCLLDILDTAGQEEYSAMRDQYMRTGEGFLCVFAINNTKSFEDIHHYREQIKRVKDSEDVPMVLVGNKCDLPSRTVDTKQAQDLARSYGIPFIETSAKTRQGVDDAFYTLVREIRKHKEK
# Method: (§1) A protein:protein interaction (PPI) Homogeneous Time Resolved Fluorescence (HTRF) assay was used to determine the effectiveness of compounds of the present disclosure in disrupting KRAS protein and effector (RAF1 or PIK3 CA) binding.
# (§2) The HTRF assay used the following reagents and proteins: (i) 375 nM Avi-KRAS G12D/Q25A (1-169) GppNHp/3×FLAG-PI3KCA (157-299); (ii) 100 nM Avi-KRAS G12D (1-169) GppNHp/RAF1 RBD-3×FLAG (52-151); (iii) 50 nM Avi-KRAS G12V (1-169) GppNHp/RAF1 RBD-3×FLAG (52-151); (iv) 50 nM Avi-KRAS WT (1-169) GppNHp/RAF1 RBD-3×FLAG (52-151); and (v) 35 nM Avi-PI3K RBD CA-3×FLAG; Assay Buffer: 50 mM Tris pH 7.5, 100 mM NaCl, 5 mM MgCl2, 0.1% BSA, 0.01% Tween, 1 mM TCEP, 10% DMSO; Bead Buffer: 50 mM Tris pH 7.5, 0.01% Tween 20; Assay volume: 20 μL (384 well plate-low volume format); and Compound titration: 100-0.02 μM, 3× dilution series.
# (§3) The HTRF assay employed the following protocol:
# (§4) Compounds were dispensed in assay plate (384-well, Grenier Bione #784075) using Echo (model 555) with dose response settings: 200 nL final volume, titration from 100 μM as a 10-point dilution series. Protein mix was prepared in assay buffer, and dispensed on plates, 10 μL per well, then incubated for 1 h at room temperature, with 700 rpm shaking. Reagents mix was prepared and dispensed on plates, 10 μL per well, then incubated for 1 h at room temperature, with 700 rpm shaking.
# (§5) Plates were analyzed on an Envision plate reader using the following setting: Excitation 320 nm, Bandwidth […]; Emission 615 nm, Bandwidth […], Gain 100%, Flashes 100, Lag 60 μs. Data was reported as percentage of activity, with DMSO as 100%. Data was plotted and analyzed using Prism 8. The SPR Kd, biochemical Raf1-KRAS G12D/G12V/WT-GppNHP and PI3KCA-KRAS G12D/Q25A-GppNHp disruption assay IC50 of selected compounds described herein are shown in Table 4.
# [2] = target: T2, Avi-KRAS G12D/Q25A (1-169) GppNHp/3xFLAG-PI3KCA (157-299) (Homo sapiens, UniProt P01116, G12D/Q25A); experiment: RAS-effector PPI HTRF disruption assay, PI3KCA-GppNHp-KRAS G12D/Q25A; type: biochemical
# T2 construct: 375 nM Avi-KRAS G12D/Q25A (1-169) GppNHp
# T2 sequence (P01116 1-169 isoform P01116-2 G12D/Q25A): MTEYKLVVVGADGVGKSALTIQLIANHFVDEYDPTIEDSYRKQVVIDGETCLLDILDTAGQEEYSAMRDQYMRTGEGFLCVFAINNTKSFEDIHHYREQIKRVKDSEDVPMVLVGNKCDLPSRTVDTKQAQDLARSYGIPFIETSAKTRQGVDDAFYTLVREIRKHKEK
# Method: as §1, §2, §3, §4, §5
# [3] = target: T3, Avi-KRAS G12V (1-169) GppNHp/RAF1 RBD-3xFLAG (52-151) (Homo sapiens, UniProt P01116, G12V); experiment: RAS-effector PPI HTRF disruption assay, Raf1-GppNHp-KRAS G12V; type: biochemical
# T3 construct: 50 nM Avi-KRAS G12V (1-169) GppNHp
# T3 sequence (P01116 1-169 isoform P01116-2 G12V): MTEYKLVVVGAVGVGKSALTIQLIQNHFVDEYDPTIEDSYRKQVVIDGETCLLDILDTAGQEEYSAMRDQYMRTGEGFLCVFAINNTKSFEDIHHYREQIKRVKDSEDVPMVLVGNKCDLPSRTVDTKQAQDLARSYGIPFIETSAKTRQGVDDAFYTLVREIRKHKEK
# Method: as §1, §2, §3, §4, §5
# [4] = target: T4, Avi-KRAS WT (1-169) GppNHp/RAF1 RBD-3xFLAG (52-151) (Homo sapiens, UniProt P01116); experiment: RAS-effector PPI HTRF disruption assay, Raf1-GppNHp-KRAS WT; type: biochemical
# T4 construct: 50 nM Avi-KRAS WT (1-169) GppNHp
# T4 sequence (P01116 1-169 isoform P01116-2): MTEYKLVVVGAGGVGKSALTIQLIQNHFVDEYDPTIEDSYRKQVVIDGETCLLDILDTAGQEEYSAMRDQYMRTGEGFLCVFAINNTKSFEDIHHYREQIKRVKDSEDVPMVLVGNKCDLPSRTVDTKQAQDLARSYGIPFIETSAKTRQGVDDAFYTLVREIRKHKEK
# Method: as §1, §2, §3, §4, §5
# [5] = tested on: pERK in GP2d cells (KRAS G12D); experiment: Cell-based pERK HTRF assay in GP2d cell; conditions: 60 min incubation
# Method: A pERK assay (Perkin Elmer) was used to determine the effectiveness of compounds in disrupting KRAS G12D protein/effector signaling in cells.
# On Day 1, cells (GP2d) were seeded into 96-well plates at 3×10^4 cells/well in 80 μL complete growth media (DMEM, 10% FBS).
# On Day 2, cells were treated with compounds at 0.25% DMSO. The source plate was created with compounds diluted in media at 5-fold the final assay concentration. The compounds were run in a 9-point concentration curve starting at 1 μM, with a half-log dilution between concentrations. 20 μL was transferred onto the cell plates (final volume in wells was 100 μL). Plates were harvested after 60 min incubation by aspirating media and adding kit-supplied 1× supplemented lysis buffer to all wells (50 μL per well). Plates were then placed on a plate shaker and incubated at 850 rpm for an additional 30 min.
# Antibody mixture solution is prepared by diluting aliquoted d2 and Eu Cryptate antibodies 1:20 in kit supplied detection buffer, mix the diluted antibodies solutions (1:1 v:v). 4 μL of this solution is then added to a 384-well detection plate (Perkin Elmer; 6008230).
# Samples were homogenized by pipetting up and down and then transferred (16 μL of cell lysates) from the 96-well cell culture plate to two wells of the HTRF 384-well detection plate containing the antibody solution. Plates were centrifuged (524 g for 1 min) and allowed to incubate between 4 and 24 h at room temperature. Maximum signal is reached after 4 h incubation time and remains stable over a period of 24 hours. Therefore, readings can be made between 4 and 24 h of incubation. Plates were centrifuged again (524 g for Imin), then analyzed on the EnVision plate reader using the following settings: Excitation 320 nm, Bandwidth 75 nm; Emission 615 nm, Bandwidth 85 nm; Gain 100%; Flashes 100; Lag 60 μs.
SMILES,IC50 [1] [nM],IC50 [2] [nM],IC50 [3] [nM],IC50 [4] [nM],"IC50 ([5]; GP2d, 1 h) [nM]",IC50 ([5]; read-out: pERK-Gp2D-1 hr) [nM]
"N#Cc1c(N)sc2c(F)ccc(-c3c(Cl)cc4c(O[C@H]5CCN[C@@H]5CO)nc(OC[C@@]56CCCN5C[C@H](F)C6)nc4c3F)c12 (atropisomer, axis not shown) [Compound 75]",> 10000,> 10000,> 10000,> 10000,–,> 1000
"C[C@H]1NCC[C@H]1Oc1nc(OC[C@@]23CCCN2C[C@H](F)C3)nc2c(F)c(-c3ccc(F)c4sc(N)c(C#N)c34)c(C(F)(F)F)cc12 (single isomer, unassigned) [Compound 74]",> 10000,> 10000,> 10000,> 10000,–,> 1000
"C[C@H]1NCC[C@H]1Oc1nc(OC[C@@]23CCCN2C[C@H](F)C3)nc2c(F)c(-c3ccc(F)c4sc(N)c(C#N)c34)c(C(F)(F)F)cc12 [Compound 47, 2-amino-7-fluoro-4-(8-fluoro-2-(((2R,7aS)-2-fluorotetrahydro-1H-pyrrolizin-7a(5H)-yl)methoxy)-4-(((2R,3R)-2-methylpyrrolidin-3-yl)oxy)-6-(trifluoromethyl)quinazolin-7-yl)benzo[b]thiophene-3-carbonitrile]",≤ 100,> 10000,100 to 1000,≤ 100,≤ 100,–
Nc1nc2c(-c3c(C(F)(F)F)cc4c(OC5CC6CC[C@H]5N6)nc(OCC56CCCN5CCC6)nc4c3F)ccc(F)c2s1 (stereo partly drawn) [Compound 36],100 to 1000,> 10000,> 10000,1000 to 10000,> 1000,–
C[C@@H]1CNCC1Oc1nc(OC[C@@]23CCCN2C[C@H](F)C3)nc2c(F)c(-c3ccc(F)c4scnc34)c(C(F)(F)F)cc12 (stereo partly drawn) [Compound 14],> 10000,> 10000,> 10000,> 10000,> 1000,–
Nc1nc2c(-c3c(C(F)(F)F)cc4c(O[C@H]5CNC[C@@H]5F)nc(OC[C@@]56CCCN5C[C@H](F)C6)nc4c3Cl)ccc(F)c2s1 [Compound 33],1000 to 10000,1000 to 10000,> 10000,1000 to 10000,100 to 1000,–
N#Cc1c(N)sc2c(F)ccc(-c3c(Cl)cc4c(O[C@@H]5CNC[C@@H]5F)nc(OC[C@@]56CCCN5C[C@H](F)C6)nc4c3F)c12 [Compound 63],100 to 1000,1000 to 10000,1000 to 10000,1000 to 10000,100 to 1000,–
C[C@H]1CNCC1Oc1nc(OC[C@@]23CCCN2C[C@H](F)C3)nc2c(F)c(-c3ccc(F)c4scnc34)c(C(F)(F)F)cc12 (stereo partly drawn) [Compound 12],> 10000,> 10000,> 10000,> 10000,> 1000,–
"C[C@@H]1C[C@H](Oc2nc(OC[C@@]34CCCN3C[C@H](F)C4)nc3c(F)c(-c4ccc(F)c5sc(N)c(C#N)c45)c(Cl)cc23)CN1 (atropisomer, axis not shown) [Compound 61]",> 10000,> 10000,> 10000,> 10000,–,> 1000
C[C@H]1C[C@H](Oc2nc(OC[C@@]34CCCN3C[C@H](F)C4)nc3c(F)c(-c4ccc(F)c5sc(N)c(C#N)c45)c(Cl)cc23)CN1 [Compound 55],1000 to 10000,1000 to 10000,> 10000,1000 to 10000,–,> 1000
C[C@H]1NCC[C@H]1Oc1nc(OC[C@@]23CCCN2C[C@H](F)C3)nc2c(F)c(-c3ccc(F)c4scnc34)c(C(F)(F)F)cc12 [Compound 23],> 10000,> 10000,> 10000,> 10000,> 1000,–
N#Cc1c(N)sc2c(F)ccc(-c3ccc4c(O[C@H]5CNC[C@@H]5F)nc(OC[C@@]56CCCN5C[C@H](F)C6)nc4c3F)c12 [Compound 71],1000 to 10000,1000 to 10000,> 10000,1000 to 10000,> 1000,–

# Further lines, results first:
IC50 [1] [nM],IC50 [2] [nM],IC50 [3] [nM],IC50 [4] [nM],"IC50 ([5]; GP2d, 1 h) [nM]",IC50 ([5]; read-out: pERK-Gp2D-1 hr) [nM],SMILES
100 to 1000,100 to 1000,1000 to 10000,1000 to 10000,100 to 1000,–,"C[C@@H]1NCC[C@H]1Oc1nc(OC[C@@]23CCCN2C[C@H](F)C3)nc2c(F)c(-c3ccc(F)c4sc(N)nc34)c(C(F)(F)F)cc12 (atropisomer, axis not shown) [Compound 8]"
100 to 1000,100 to 1000,1000 to 10000,1000 to 10000,–,100 to 1000,"Nc1nc2c(-c3c(C(F)(F)F)cc4c(O[C@@H]5CCNC5)nc(OC[C@@]56CCCN5C[C@H](F)C6)nc4c3Cl)ccc(F)c2s1 (atropisomer, axis not shown) [Compound 10]"
100 to 1000,1000 to 10000,1000 to 10000,1000 to 10000,100 to 1000,–,C[C@@H]1CNCC1Oc1nc(OC[C@@]23CCCN2C[C@H](F)C3)nc2c(F)c(-c3ccc(F)c4sc(N)nc34)c(C(F)(F)F)cc12 (stereo partly drawn) [Compound 15]
> 10000,> 10000,> 10000,> 10000,–,> 1000,"Nc1nc2c(-c3c(C(F)(F)F)cc4c(O[C@@H]5CCNC5)nc(OC[C@@]56CCCN5C[C@H](F)C6)nc4c3Cl)ccc(F)c2s1 (atropisomer, axis not shown) [Compound 11]"
> 10000,1000 to 10000,> 10000,1000 to 10000,–,–,"Nc1nc2c(-c3c(C(F)(F)F)cc4c(O[C@H]5CNC[C@H]5F)nc(OC[C@@]56CCCN5C[C@H](F)C6)nc4c3F)ccc(F)c2s1 [Compound 22, 7-fluoro-4-(8-fluoro-4-(((3S,4R)-4-fluoropyrrolidin-3-yl)oxy)-2-(((2R,7aS)-2-fluorotetrahydro-1H-pyrrolizin-7a(5H)-yl)methoxy)-6-(trifluoromethyl)quinazolin-7-yl)benzo[d]thiazol-2-amine]"
> 10000,> 10000,> 10000,> 10000,–,–,"Nc1nc2c(-c3c(C(F)(F)F)cc4c(O[C@@H]5CCNC5)nc(OC[C@@]56CCCN5C[C@H](F)C6)nc4c3F)ccc(F)c2s1 (atropisomer, axis not shown) [Compound 5]"
1000 to 10000,1000 to 10000,> 10000,1000 to 10000,–,–,"Nc1nc2c(-c3c(C(F)(F)F)cc4c(O[C@H]5C[C@H]6CC[C@@H](C5)N6)nc(OCC56CCCN5CCC6)nc4c3F)ccc(F)c2s1 (atropisomer, axis not shown) [Compound 6]"
100 to 1000,100 to 1000,1000 to 10000,1000 to 10000,–,–,"Nc1nc2c(-c3c(C(F)(F)F)cc4c(O[C@@H]5CCNC5)nc(OC[C@@]56CCCN5C[C@H](F)C6)nc4c3F)ccc(F)c2s1 (atropisomer, axis not shown) [Compound 4]"
